Results as given in publication PMC8297402, “Trifluoromethyl-substituted 3,5-bis(arylidene)-4-piperidones as potential anti-hepatoma and anti-inflammation agents by inhibiting NF-кB activation” (Journal of Enzyme Inhibition and Medicinal Chemistry, 2021).
“And” between values parts separate entries of the source, which are not always exact repeats. Equal entries are not always repeated. Where two headings read alike, the source gives them in different places.

What was measured:
SMMC-7721 = test: Modified MTT cytotoxicity assay, SMMC-7721; format: cell-based, Human; details: for IC50: MTT, 24 h incubation, three replicates; for SI (selectivity index) SMMC-7721: quotient of IC50 for normal (LO2) and malignant (SMMC-7721) cells
Method: (§1) The HepG2, SMMC-7721, and LO2 cell lines were maintained at 37 °C, 5% humidified CO2, and 95% atmosphere. Dulbecco's Modified Eagle (DMEM) medium containing 10% foetal bovine serum (FBS) was used for culturing the HepG2 cell line; meanwhile, Roswell Park Memorial Institute (RPMI) 1640 medium containing 10% FBS was used for culturing other cell lines (SMMC-7721, LO2). The HepG2, SMMC-7721 and LO2 cells were seeded in a 96-well plate in 200 μL of medium per well at a density of approximately 8 × 10^3 cells/well and cultured for 24 h, followed by incubation in an incubator of indicated compounds with successive concentrations (10, 5, 2.5, 1.25, 0.625, 0.3125 μg/mL) for 24 h. In the control group, cells were only cultured with culture media. After the media were removed, 20 μL of MTT (5 mg/mL) was added, then cells were incubated for 4 h at 37 °C. […] GraphPad Prism 5 software was used to calculate their IC50 values. Every IC50 value was the average of three replicates. Doxorubicin (DOX) and curcumin were used as positive controls.

IL-6 = test: ELISA of IL-6 release in LPS-stimulated RAW264.7 cells; format: cell-based, mouse; details: BAPs (5 μM) + LPS (1 μg/mL), RAW264.7, ELISA
Method: (§2) We tested by inhibiting the secretion of TNF-α and IL-6 to better evaluated the anti-inflammatory effects of BAPs. […] Under the stimulation of LPS (1.0 μg/mL) with RAW264.7 cells, the release of TNF-α and IL-6 was detected. Besides, after treated with BAPs (5.0 μM) and LPS (1.0 μg/mL), the release of TNF-α and IL-6 was measured with an ELISA kit (eBioScience, San Diego, California), respectively. In general terms, pyrrolidine dithiocarbamate (PDTC, 30 μM) or BAP (5.0 μM) was used to pretreat cells for 2 h, respectively. Then, LPS (1.0 μg/mL) was added and cells were incubated for another 22 h. Finally, the culture media were centrifuged at 1000 rpm for 10 min, and the expression levels of TNF-α and IL-6 were determined by ELISA.

RAW264.7 cell = test: MTT toxicity pre-experiment on RAW264.7 macrophagocyte; format: cell-based, mouse; details: BAPs 5 μM
Method: Lipopolysaccharide (LPS) is a key constituent of Gram-negative bacterial endotoxin, which is used to induce an inflammatory response in corresponding inflammatory cells. TNF-α and IL-6 are two kinds of representative pro-inflammatory factors, which produced by LPS-stimulated RAW264.7 macrophage. In our pre-experiments, the toxicity against RAW264.7 macrophagocyte for all title compounds was tested by the MTT assay, and the results were listed in Table 2. The survival rates were above 80% for all BAPs (4-30) at the concentration of 5.0 μM.

LO2 = test: Modified MTT cytotoxicity assay, normal heptical cell line LO2; format: cell-based, human; details: 24 h incubation
Method: as §1

TNF-α = test: ELISA of TNF-α release in LPS-stimulated RAW264.7 cells; format: cell-based, mouse; details: for Inhibition rate TNF-α: BAPs (5 μM) + LPS (1 μg/mL), RAW264.7, ELISA; for Inhibition rates against IL-6 and TNF-α cytokine release, average: average of TNF-α and IL-6, 5 μM + LPS, RAW264.7
Method: as §2

HepG2 = test: Modified MTT cytotoxicity assay, HepG2; format: cell-based, Human; details: for SI (selectivity index) HepG2: quotient of IC50 for normal (LO2) and malignant (HepG2) cells; for SI value, average: average of SI for HepG2 and SMMC-7721
Method: as §1

A549 = test: Modified MTT cytotoxicity assay, A549; details: for SI (selectivity index) A549: quotient of IC50 for normal (HHL-5) and malignant (A549) cells; for IC50: read-out: Cytotoxicity IC50 A549, MTT, non-small cell lung cancer cell line
A2780 = test: Modified MTT cytotoxicity assay, A2780; details: for SI (selectivity index) A2780: quotient of IC50 for normal (HHL-5) and malignant (A2780) cells; for IC50: read-out: Cytotoxicity IC50 A2780, MTT, ovarian cancer cell line
HHL-5 = test: Modified MTT cytotoxicity assay, normal heptical cell line HHL-5; details: read-out: Cytotoxicity IC50 HHL-5; MTT, normal heptical cell line
[1] = MTT, 24 h incubation, three replicates, read-out: Cytotoxicity IC50 HepG2
[2] = average of HepG2 and SMMC-7721, read-out: Cytotoxicity against HCC cells, average

SMILES	IC50 (SMMC-7721) [nM]	SI (selectivity index) SMMC-7721 (SMMC-7721)	Inhibition rate IL-6 (IL-6) [%]	Survival rate RAW264.7 cell (RAW264.7 cell)	IC50 (LO2) [nM]	Inhibition rate TNF-α (TNF-α) [%]	IC50 (HepG2; [1]) [nM]	SI (selectivity index) HepG2 (HepG2)	SI (selectivity index) A549 (A549)	IC50 (A549) [nM]	SI (selectivity index) A2780 (A2780)	IC50 (A2780) [nM]	IC50 (HHL-5) [nM]	also measured
O=C1/C(=C/c2ccccc2C(F)(F)F)CN(S(=O)(=O)c2ccccc2)C/C1=C\c1ccccc1C(F)(F)F [BAP 4]	~8200	2.0	70.7 ± 1.3	82.2 ± 2.0%	16400 ± 200	62.1 ± 4.7	~9200	1.8	3.8	2240 ± 1230	0.2	54000 ± 12000	–	IC50 (SMMC-7721; listed as 4): 8200 ± 600 nM; IC50 (HepG2; MTT, 24 h incubation, three replicates, listed as 4, read-out: Cytotoxicity IC50 HepG2): 9200 ± 200 nM
O=C1/C(=C/c2ccccc2C(F)(F)F)CN(S(=O)(=O)c2ccc(C(F)(F)F)cc2)C/C1=C\c1ccccc1C(F)(F)F [BAP 7]	~2600	6.6	–	87.3 ± 1.9%	17200 ± 200	–	~2100	8.2	3.4	2680 ± 530	27.6	330 ± 30	9100 ± 200	IC50 (SMMC-7721; listed as 7): 2600 ± 200 nM; Inhibition rate IL-6 (IL-6; 5 µM): ca. 71.2%; Inhibition rate IL-6 (IL-6; listed as 7, 5 µM): 71.2 ± 1.3%; Inhibition rate TNF-α (TNF-α; 5 µM): ca. 69.9%; Inhibition rate TNF-α (TNF-α; listed as 7, 5 µM): 69.9 ± 1.1%; IC50 (HepG2; MTT, 24 h incubation, three replicates, listed as 7, read-out: Cytotoxicity IC50 HepG2): 2100 ± 100 nM
CC(=O)Nc1ccc(S(=O)(=O)N2C/C(=C\c3ccccc3C(F)(F)F)C(=O)/C(=C/c3ccccc3C(F)(F)F)C2)cc1 [BAP 12]	10900 ± 400	1.4	62.8 ± 3.0	86.4 ± 0.7%	15600 ± 1300	67.2 ± 2.4	12900 ± 100	1.2	3.3	2390 ± 90	6.5	1220 ± 60	7900 ± 200	–
CC(=O)Nc1ccc(S(=O)(=O)N2C/C(=C\c3cccc(C(F)(F)F)c3)C(=O)/C(=C/c3cccc(C(F)(F)F)c3)C2)cc1 [BAP 21]	5100 ± 100	2.8	71.6 ± 5.3	90.2 ± 3.6%	14400 ± 100	78.5 ± 4.2	1300 ± 100	11.1	14.3	210 ± 10	17.6	170 ± 10	3000 ± 600	–
Cc1ccc(S(=O)(=O)N2C/C(=C\c3ccc(C(F)(F)F)cc3)C(=O)/C(=C/c3ccc(C(F)(F)F)cc3)C2)cc1 [BAP 23]	~800	16.4	69.2 ± 6.3	89.2 ± 3.0%	13100 ± 300	78.1 ± 3.2	~1000	13.1	23.3	150 ± 20	21.9	160 ± 20	3500 ± 200	IC50 (SMMC-7721; listed as 23): 800 ± 200 nM; IC50 (HepG2; MTT, 24 h incubation, three replicates, listed as 23, read-out: Cytotoxicity IC50 HepG2): 1000 ± 300 nM
O=C1/C(=C/c2ccc(C(F)(F)F)cc2)CN(S(=O)(=O)c2ccc(C(F)(F)F)cc2)C/C1=C\c1ccc(C(F)(F)F)cc1 [BAP 25]	1300 ± 300	14.1	–	87.3% and 87.3 ± 4.2%	18300 ± 600	–	900 ± 200	20.3	41.1	270 ± 30	39.6	280 ± 30	11100 ± 200	Inhibition rates against IL-6 and TNF-α cytokine release, average (TNF-α): 78.6%; IC50 (HepG2; [2]): 1100 nM; SI value, average (HepG2): 17.2
O=C1/C(=C/c2ccc(C(F)(F)F)cc2)CN(S(=O)(=O)c2ccc(F)cc2)C/C1=C\c1ccc(C(F)(F)F)cc1 [BAP 26]	3100 ± 100	5.1	62.8 ± 3.0	87.6 ± 1.7%	15700 ± 200	66.3 ± 5.3	3100 ± 200	5.1	70.6	160 ± 50	38.0	297 ± 50	–	–
N#Cc1ccc(S(=O)(=O)N2C/C(=C\c3ccc(C(F)(F)F)cc3)C(=O)/C(=C/c3ccc(C(F)(F)F)cc3)C2)cc1 [BAP 29]	1300 ± 300	16.5	–	83.4% and 83.4 ± 3.3%	21500 ± 1500	–	1700 ± 100	–	203.7	~81	91.7	~180	16500 ± 300	Inhibition rates against IL-6 and TNF-α cytokine release, average (TNF-α): 73.4%; IC50 (HepG2; [2]): 1500 nM; SI value, average (HepG2): 14; SI (selectivity), bound stated for A549 and A2780 together (A549; A549 and A2780 vs HHL-5): > 90; IC50 (A549; listed as 29): 81 ± 4 nM; IC50 (A2780; listed as 29): 180 ± 10 nM
